Data on 5 molecules can be found in patent publication US10759809B2 (priority 2017, dated 2020).

Structures can show the parent of a compound that is named as a salt.

As usually defined, the ED50 is the dose at which the effect has come halfway, by size or by number of responders. Low values mean an effect at a small dose, high ones a need for a large dose.

One data set relates to Kunming mice. Nature of the data set: animal or person. It counts as in vivo. The settings on record: Mus musculus, po, 1 h.
For a further data set, the system named is SD rats. The settings on record: male, rat, in vivo.
Another data set concerns SD rat. Nature of the data set: animal or person. It counts as in vivo. The settings on record: po, 1 h.
Another data set deals with Mice. The settings on record: both, mouse, in vivo.

Consider `[2H]C([2H])(C1CC1)N1CC[C@]23c4c5ccc(O)c4O[C@H]2[C@@]2(OC)CC[C@@]3(C[C@@H]2[C@](C)(O)C(C)(C)C)[C@H]1C5` [I1•HCl, (2S)-2-[(5R, 6R, 7R, 14S)—N-(cyclopropyl-dideuteromethyl)-4,5-epoxy-6, 14-ethano-3-hydroxy-6-methoxymorphinan-7-yl]-3,3-dimethylbutan-2-ol], for which the ED50 in the data set with Kunming mice amounted to 6.54 ± 2.96 mg/kg; with SD rat it was 19 ± 7.29 mg/kg. The “Residence time in drug-side box (Mean ± S, s)” value with SD rats turned out to be 149.19 ± 36.88 s. The “Inhibition of activated carbon excretion” value with Mice amounted to 36.31 ± 2.78%.

Take `[2H]c1c([2H])c2c3c(c1O)O[C@H]1[C@@]4(OC)CC[C@@]5(C[C@@H]4[C@](C)(O)C(C)(C)C)[C@@H](C2)N(CC2CC2)CC[C@]315` [I5•HCl, (2S)-2-[(5R, 6R, 7R, 14S)-1,2-dideutero-N-cyclopropylmethyl-4,5-epoxy-6,14-ethano-3-hydroxy-6-methoxymorphinan-7-yl]-3,3-dimethylbutan-2-ol]: the ED50 in the data set on Kunming mice is 8.02 ± 11.3 mg/kg; in the data set on SD rat, 31.1 ± 10.9 mg/kg.

As to `[2H]c1c([2H])c2c3c(c1O)O[C@H]1[C@@]4(OC)CC[C@@]5(C[C@@H]4[C@](C)(O)C(C)(C)C)[C@@H](C2)N(C([2H])([2H])C2CC2)CC[C@]315` [I6•HCl, (2S)-2-[(5R, 6R, 7R, 14S)-1,2-dideutero-N-(cyclopropyl-dideuteromethyl)-4,5-epoxy-6,14-ethano-3-hydroxy-6-methoxymorphinan-7-yl]-3,3-dimethylbutan-2-ol], the 50% effective dose (ED50) was found to be 5.83 ± 2.23 mg/kg in the data set with Kunming mice and 18 ± 8.56 mg/kg in the data set on SD rat.

Turning to `[2H]C1C([2H])[C@]23C[C@H]([C@](C)(O)C(C)(C)C)[C@@]1(OC)C1Oc4c(O)ccc5c4[C@@]12CCN(CC1CC1)[C@@H]3C5` (stereo partly drawn) [I7•HCl, (2S)-2-[(5R, 6R, 7R, 14S)—N-(cyclopropyl-methyl)-4,5-epoxy-6,14-dideuteroethano-3-hydroxy-6-methoxymorphinan-7-yl]-3,3-dimethylbutan-2-ol], the ED50 came to 12 ± 11.7 mg/kg in the data set with Kunming mice and 38 ± 19.7 mg/kg with SD rat.

Take `CO[C@]12CC[C@@]3(C[C@@H]1[C@](C)(O)C(C)(C)C)[C@H]1Cc4ccc(O)c5c4[C@@]3(CCN1CC1CC1)[C@H]2O5` [buprenorphine•HCl, (2S)-2-[(5R, 6R, 7R, 14S)—N-cyclopropylmethyl-4,5-epoxy-6, 14-ethano-3-hydroxy-6-methoxymorphinan-7-yl]-3,3-di methylbutan-2-ol, reference compound]: the ED50 was 11.8 ± 11.7 mg/kg in the data set with Kunming mice and above 50 mg/kg in the data set with SD rat. Further, the “Residence time in drug-side box (Mean ± S, s)” value with SD rats is given as 277.56 ± 164.99 s. Besides, the “Inhibition of activated carbon excretion” value in the data set on Mice is recorded as 63.87 ± 2.16%.
